Reference: EP0309422A2, “New amidino tricycle derivatives” (ISTITUTO DE ANGELI S.p.A., priority 1987, dated 1989)

Molecular target: T1, muscarinic receptors of the cerebral cortex (Rattus norvegicus, UniProt P08482)
T1 construct: displacement of ³H-pirenzepine from cerebral cortex homogenate; from tissue; host or cells: rat cerebral cortex homogenate
T1 sequence (P08482 1-460): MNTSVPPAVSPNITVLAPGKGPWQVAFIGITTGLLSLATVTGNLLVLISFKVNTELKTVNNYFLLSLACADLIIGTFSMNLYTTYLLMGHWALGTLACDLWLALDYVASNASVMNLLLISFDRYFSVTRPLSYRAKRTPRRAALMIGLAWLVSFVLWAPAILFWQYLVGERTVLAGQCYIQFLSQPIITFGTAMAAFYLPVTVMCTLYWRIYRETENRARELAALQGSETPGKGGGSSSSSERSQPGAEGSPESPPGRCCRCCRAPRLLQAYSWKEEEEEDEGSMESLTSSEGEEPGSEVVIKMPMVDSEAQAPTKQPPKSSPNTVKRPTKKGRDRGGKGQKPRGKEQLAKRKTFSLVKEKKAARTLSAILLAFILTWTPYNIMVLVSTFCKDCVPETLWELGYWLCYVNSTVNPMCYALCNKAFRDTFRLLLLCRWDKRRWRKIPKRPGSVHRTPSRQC
Assay: Antimuscarinic activity: in vitro binding, displacement of ³H-pirenzepine from cerebral cortex homogenate
Set-up: species or system male CD-COOBBS rats
Conditions: competition against 0.5 nM ³H-pirenzepine, 45 min at 30°C, KD from IC50 corrected for radioligand occupancy shift, read-out: Dissociation constants (KD) for ³H-pirenzepine binding
Method: Antimuscarinic activity was examined by studying the displacement of ³H-pirenzepine from cerebral cortex homogenate according to the procedure reported below: The cerebral cortex donors were male CD-COOBBS rats, 220-250 g body weight. The homogenization process was carried out in a Potter-Evelhjem apparatus in the presence of Na⁺/Mg⁺⁺ HEPES buffer; pH 7.4 (100 mM NaCl, 10 mM MgCl₂, 20 mM HEPES), by filtering the suspension through two layers of cheesecloth.
Binding curves for the under study compounds were derived indirectly from competition experiments against 0.5 nM ³H-pirenzepine labelling the muscarinic receptors of the cerebral cortex. 1 ml of the homogenate was incubated for 45 min at 30°C in the presence of a marker ligand and different concentrations of the cold ligand, conditions under which equilibrium was reached as determined by appropriate association experiments. The incubation was terminated by centrifugation (12,000 rpm for 3 min) at room temperature using an Eppendorf microcentrifuge. The resultant pellet was washed twice with 1.5 ml saline to remove the free radioactivity and it was allowed to drain for some hours. The tips of the tubes containing the pellet were cut off and 200 µl of tissue solubilizer (Lumasolve, Lumac) were added and left to stand overnight. Radioactivity was then counted after addition of 4 ml of liquid scintillation mixture (Dimilume/Toluene 1:10 v:v, Packard)
Assays were carried out in triplicate or quadruplicate and the non-specific binding was defined as the radioactivity bound or entrapped in the pellet when the incubation medium contained 1 µM atropine sulphate. Non-specific binding avaraged less than 30%. KD values (dissociation constants) were obtained by non-linear regression analysis on the basis of a one binding site model with TOPFIT-pharmacokinetic programme package (G. HEINZEL, "Pharmacokinetics during drug development: data analysis and evaluation techniques" Eds. G. BOLZER and J.M. VAN ROSSUM; p. 207, G. Fisher, New York, 1982) after correction for the radioligand occupancy shift according to the equation: KD = IC₅₀/1 + *C/*KD, where *C and *KD represent the concentration and the dissociation constant of the radioligand used, respectively.

Compound	Kd [nM]
N=C(N)N1CCN(CC(=O)N2c3ccccc3NC(=O)c3ccccc32)CC1 [Compound 3, 5,10-dihydro-5-[2-(4-guanyl-piperazin-1-yl)-acetyl]-11H-dibenzo [b,e] [1,4]-diazepin-11-one]	6
N=C(N)N1C2CCC1CC(CC(=O)N1c3ccccc3NC(=O)c3cscc31)C2 (stereo not drawn) [Compound 19, 4,9-dihydro-4-[2-(8-guanyl-8-azabicyclo[3.2.1]-octan-3-yl)-acetyl]-10H-thieno[3,4-b] [1,5]-benzodiazepin-10-one]	4
N=C(N)N1CCCC(CC(=O)N2c3ccccc3NC(=O)c3ccccc32)C1 (stereo not drawn) [Compound 26, 5,10-dihydro-5-[2-(1-guanyl-piperidin-3-yl)-acetyl]-11H-dibenzo [b,e] [1,4]-diazepin-11-one]	9
N=C(N)N1CCC(OC(=O)C2c3ccccc3NC(=O)c3ccccc32)CC1 (stereo not drawn) [Compound 31, 5,6-dihydro-11-[(1-guanyl-4-piperidinyl)-oxycarbonyl]-11H-dibenz[b,e]-azepin-6-one]	7.7
CC(=N)N1CCCC(C(=O)N2c3ccccc3NC(=O)c3ccccc32)C1 (stereo not drawn) [Compound 62, 5,10-dihydro-5-[(1-α-iminoethyl-piperidin-3-yl)-carbonyl]-11H-dibenzo[b,e] [1,4]-diazepin-11-one]	8
CNC(=N)C1CCCN(CC(=O)N2c3ccccc3NC(=O)c3ccccc32)C1 (stereo not drawn) [Compound 78, 5,10-dihydro-5-[2-(3-N-methylguanyl-piperidin-1-yl)-acetyl]-11H-dibenzo[b,e] [1,4]-diazepin-11-one]	5
O=C1Nc2ccccc2N(C(=O)CCN2C=NCCC2)c2ccccc21 [Compound 81, 5,10-dihydro-5-[3-(1,4,5,6-tetrahydropirimidin-1-yl)-propionyl]-11H-dibenzo[b,e] [1,4]-diazepin-11-one]	10
O=C1Nc2cccnc2N(C(=O)CCN2C=NCCC2)c2ccccc21 [Compound 82, 5,11-dihydro-11-[3-(1,4,5,6-tetrahydropirimidin-1-yl)-propionyl]-6H-pyrido[2,3-b] [1,5]-benzodiazepin-6-one]	10
O=C1Nc2ccccc2N(C(=O)CCN2C=NCCC2)c2cscc21 [Compound 83, 4,9-dihydro-4-[3-(1,4,5,6-tetrahydropirimidin-1-yl)-propionyl]-10H-thieno[3,4-b] [1,5]-benzodiazepin-10-one]	7
CC1=NCCCN1CCC(=O)N1c2ccccc2C(=O)Nc2cccnc21 [Compound 85, 5,11-dihydro-11-[3-(2-methyl-1,4,5,6-tetrahydropirimidin-1-yl)-propionyl]-6H-pyrido[2,3-b] [1,4]-benzodiazepin-6-one]	5

Continued by falling Kd, values first:

Kd [nM]	Compound
5	CC(=N)N1CCCC(CC(=O)N2c3ccccc3NC(=O)c3ccccc32)C1 (stereo not drawn) [Compound 61, 5,10-dihydro-5-[2-(1-α-iminoethyl - piperidin-3-yl)-acetyl]-11H-dibenzo[b,e] [1,4]-diazepin-11-one]
4	O=C1Nc2ccccc2N(C(=O)CC2CCN(C3=NCCN3)CC2)c2ccccc21 [Compound 72]
3.2	N=C(N)N1CCC(CC(=O)N2c3ccccc3NC(=O)c3ccccc32)CC1 [Compound 20, 5,10-dihydro-5-[2-(1-guanyl-piperidin-4-yl)-acetyl]-11H-dibenzo b,e [1,4]-diazepin-11-one]
2.7	CC(=N)N1CCC(CC(=O)N2c3ccccc3NC(=O)c3ccccc32)CC1 [Compound 60, 5,10-dihydro-5-[2-(1-α-iminoethyl-piperidin-h-yl)-acetyl]-11H-dibenzo[b,e] [1,4]-diazepin-11-one]
2.5	CC1=NCCCN1CCC(=O)N1c2ccccc2NC(=O)c2ccccc21 [Compound 84, 5,10-dihydro-5-[3-(2-methyl-1,4,5,6-tetrahydropirimidin-1-yl)-propionyl]-11H-dibenzo[b,e] [1,4]-diazepin-11-one]
